How the values were obtained:
[1] = Local tolerance test: s.c. injection of bisphosphonate solution pH 7.4 with and without chelating agent, swelling score and diameter of subcutaneous lesions at necropsy; settings: for adverse local reaction at the application sites: additional bivalent cation chelator in bisphosphonate formulation, compared with corresponding formulation without chelator; for severity of subcutaneous findings at necropsy / intensity and duration of local swelling at the injection site: chelating agent in injectable formulations of alendronate or ibandronate; for severity of subcutaneous findings at necropsy: necropsy after 9 days; for intensity and duration of local swelling at the injection site: observed over 9 days
Procedure: (§1) Groups of 3 rats were treated with test formulations containing 1 mg ibandronate/ml physiological saline buffered at pH 7.4. One group of rats received the test formulation without any additional additive, another group received the test solution with 1 mg EDTA/ml as an additive. The back of the rat was shaved one day before treatment. A volume of 0.5 ml each was injected subcutaneously at three different sites of the right part of shaved back. The left side of the back was treated with the corresponding formulation without ibandronate (placebo). Local reactions were assessed by a scoring system for swelling: 0=no reaction, 0.5=barely perceptible swelling, 1=slight swelling, 2=moderate swelling, 3=marked swelling, 4=severe swelling. The animals were observed over 9 days and thereafter necropsied. At necropsy, the diameter of subcutaneous lesions, mainly consisting of reddening or swelling, was measured.
(§2) The same study design as described in example 1 was applied to examine the concentration dependence of the EDTA effect. EDTA was added at concentrations of 0.1, 1.0 and 10 mg/ml.
(§3) DTPA was added at a concentration of 10 mg/ml.
(§4) The same study design as described in example 1 was applied to examine the efficacy of EDTA on local reaction to s.c. injected alendronate. The test formulations contained 3 mg alendronate/ml physiological saline buffered at pH 7.4. EDTA was added at a concentration of 10 mg/ml.

[2] = rat, in vivo, pH 7.4
Procedure: as §1, §2, §3, §4

| SMILES | efficacy of DTPA as chelating agent on local reaction ([1]; 1 mg ibandronate/ml pH 7.4, DTPA 10 mg/ml, s.c.) | adverse local reaction at the application sites [1] | severity of subcutaneous findings at necropsy ([1]; s.c.) | intensity and duration of local swelling at the injection site ([1]; s.c.) | effect on local adverse reactions at lowest ratio ([1]; 1 mg ibandronate/ml pH 7.4, molar ibandronate to EDTA ratio 1:0.1 (EDTA 0.1 mg/ml)) | local adverse reactions at highest ratio ([1]; 1 mg ibandronate/ml pH 7.4, molar ibandronate to EDTA ratio 1:10 (EDTA 10 mg/ml)) | effect of EDTA on alendronate induced local reaction ([1]; 3 mg alendronate/ml physiological saline pH 7.4, EDTA 10 mg/ml, s.c.) | improving effect of EDTA on local tolerance (dose dependence) [2] |
| --- | --- | --- | --- | --- | --- | --- | --- | --- |
| O=C(O)CN(CCN(CC(=O)O)CC(=O)O)CCN(CC(=O)O)CC(=O)O [DTPA, diethylenetriaminepentaacetic acid] | could also be demonstrated | substantially improved | reduces | reduces |  |  |  |  |
| O=C(O)CN(CCN(CC(=O)O)CC(=O)O)CC(=O)O [EDTA, ethylenediaminetetraacetic acid] |  | substantially improved | reduces | reduces | still some beneficial effect | still not completely abolished | could also be demonstrated | dose-related |

Source: patent US20010011082A1, “Parenteral bisphosphonate composition with improved local tolerance” (priority 2000, published 2001)
